Assay results taken from patent US4933365A, “Phospholipase A2 inhibitors” (American Home Products Corporation, priority 1989, dated 1990).

Tests used:
[1] = test system: vascular cutaneous permeability induced by snake venom PLA2 (Naja mocambique mocambique PLA2); experiment: reduction of vascular cutaneous permeability induced by snake venom PLA2; assay type: in vivo, guinea pig (male Hartley); details: for % Inhibition: standard drug
carrageenan paw edema = experiment: rat carrageenan paw edema; assay type: in vivo, rat (male Sprague-Dawley); details: po, 3 h, read-out: Oral ED50 (95% C.L.)
Procedure: The compounds in the scope of the invention are further tested in the rat carrageenan paw edema to determine their ability to inhibit the acute inflammatory response.
This assay is carried out as follows:
[…] male Sprague-Dawley rats, in groups of 6 animals are injected subcutaneously in the right paw with 0.1 ml of 1% carrageenan at zero time. Mercury plethysmographic readings (ml) of the paw made at zero time and 3 hours later. Test compounds are suspended or dissolved in 0.5% methylcellulose and given perorally 1 hour prior to carrageenan administration.
The increase in paw volume (edema in ml.) produced by the carrageenan is measured. Paw edema is calculated (3 hour volume minus zero time volume), and percent inhibition of edema is determined. Unpaired Student's t-test is used to determine statistical significance.

[2] = test system: synthesis of the arachidonic acid cyclooxygenase oxidation product TxB2; experiment: inhibition of TxB2 synthesis (cyclooxygenase) by rat PMN; assay type: cell-based, rat (female Wistar); details: A23187 stimulated rat PMN
Procedure: Rat polymorphonuclear leukocytes (PMNs) are obtained from female Wistar rats (150-200 g) which receive an injection of 6% glycogen (10 ml i.p.). Rats are sacrificed 18-24 hours post injection by CO2 asphyxiation and the elicited cells are harvested by peritoneal lavage using physiological saline (0.9% NaCl). The exudate is centrifuged at 400×g for 10 minutes. The supernatant fluid is discarded and the cell pellet is resuspended to concentration of 2.0×10^7 cells/ml in HBSS containing Ca^++ and Mg^++ and 10 μM L-cysteine.
To 1 ml aliquots of cell suspension, test drugs or vehicle are added, then preincubated at 37° C. for 10 minutes. A23187 (1 μM) and [^3 H]-AA (3.0 μCi/ml) are then added and the samples are further incubated for 10 minutes. The reaction is terminated by centrifugation and pelleting cells. Supernatants are then analyzed by HPLC analysis on a 15 cm ×4.6 mm ID Supelcosil LC-18 (Supelco)(3M) column, using a two solvent system at a flow rate of 1.4 ml total flow as follows:
Injections: 150 μl of each supernatant is injected directly onto column and ^3 H arachidonic acid metabolites are monitored using an on-line radioactivity detector (Ramona, IN/US, Fairfield, N.J.).
Co-chromatography with standard [^3 H] leukotriene B4 (LTB4) in medium of stimulated PMN exposed to drug is compared to that found in medium of stimulated cells exposed to no drug, generating percent inhibition.
Results are expressed as percent inhibition at a given compound dose.
In this assay, the procedure of Example 13 is carried out as described. However, in order to determine cyclooxygenase activity, the samples are co-chromatographed with authentic reference [^3 H]--TxB2.
The results are calculated as in Example 13 and present below: […]

[3] = test system: oxazolone-induced contact hypersensitivity in the mouse ear; experiment: oxazolone-induced contact hypersensitivity in the mouse ear; assay type: in vivo, mouse (female Swiss Webster); details: dosed at 1 mg/ear
Procedure: The assay of this Example measures the ability of the compound in the scope of the invention to inhibit oxazolone-induced contact hypersensitiveity in the mouse ear.
The assay is carried out as follows:
Female, Swiss Webster mice (8 weeks old) are placed into groups of 6 and the abdominal area of each is shaved. The mice are sensitized to oxazolone (4-ethoxymethylene-2-phenyl-oxazol-5-one) by applying 100 μl of a 2% solution in 95% alcohol directly onto the shaved abdomen using an automatic pipette and rubbing the residual oxaxolone into the skin with a round wooden stick. Six days after sensitization each mouse is challenged by applying 20 μl if a 2% oxazolone solution in 95% alcohol to the right ear (10 μl of alcohol alone to the left ear. Compounds for topical applications are prepared in acetone and administered to the right ear 30 min after challenge or 30 min prior to and 5 h after challenge; acetone (vehicle) is applied to the left ear. Compounds for oral administration are suspended in 0.5 ml of 0.5% methyl cellulose and given ten min prior to challenge. Ear thickness of both ears is measured in mm×10^- 2 at 24 and 48 h after challenge using an Oditest caliper. Edema is calculated by subtracting the left ear thickness from the right ear thickness. Drug effects are determined by calculating the percentage change from control for each time period.

COC(=O)C1(C(F)=CCCCOc2ccc(Cl)cc2)CO1 (stereo not drawn) [6 (fluoro-vinyl compound), 2-[5-(4-Chlorophenoxy)-1-fluoro-1-pentenyl]-2-oxiranecarboxylic acid methyl ester]
% Inhibition, iv at 100 mg/kg [1]: 32%

CC(=O)Oc1ccccc1C(=O)O [Aspirin]
ED50 (carrageenan paw edema): 145 mg/kg

NC1=NN(c2cccc(C(F)(F)F)c2)CC1 [BW 755c]
% Inhibition ([1]; 200 mg/kg p.o.): 65.3%

CN(C)CCC(c1ccc(Cl)cc1)c1ccccn1 (stereo not drawn) [Chlorpheniramine]
% Inhibition ([1]; 2 mg/kg p.o.): 45.0%

C[C@@H]1C[C@H]2[C@@H]3CCC4=CC(=O)C=C[C@]4(C)[C@@]3(F)[C@@H](O)C[C@]2(C)[C@@]1(O)C(=O)CO [Dexamethasone]
% Inhibition ([1]; 10 mg/kg p.o.): 49.0%

COC(=O)C1(C(=O)CCCCOc2ccc(Cl)cc2)CO1 (stereo not drawn) [Example 6A, 2-[5-(4-Chlorophenoxy)-1-oxopentyl]-2-oxiranecarboxylic acid methyl ester]
inhibition at 10 µM [2]: 30%

COC(=O)C1(C(=O)CCCCc2ccccc2)CO1 (stereo not drawn) [Example 9, 2-(5-Phenyl-1-oxopentyl)-2-oxiranecarboxylic acid methyl ester]
inhibition at 10 µM [2]: 1%
% Inhibition [3]: 22.0%

CCOC(=O)C1(CCCCCc2ccc(Cl)cc2)CO1 (stereo not drawn) [Example 10, 2-[5-(4-Chlorophenyl)pentyl]-2-oxiranecarboxylic acid ethyl ester]
inhibition at 10 µM [2]: 4%
% Inhibition, iv at 100 mg/kg [1]: 24.1%

COc1ccc2c(c1)c(CC(=O)O)c(C)n2C(=O)c1ccc(Cl)cc1 [Indomethacin]
ED50 (carrageenan paw edema): 3.7 mg/kg
% Inhibition ([1]; 50 mg/kg p.o.): 15.0%
